Marks after values point to notes of the source that are not given here.
Test system: SK-N-BE(2)C xenografts
Experiment: Ex vivo biodistribution (γ-counter), mice bearing SK-N-BE(2)C xenografts
Type: in vivo
Conditions: SK-N-BE(2)C
Description: All studies were conducted in compliance with licenses issued under the UK Animals (Scientific Procedures) Act 1986 and approved by the Institute of Cancer Research Animal Welfare and Ethical Review Body (AWERB) according to the United Kingdom National Cancer Research Institute Guidelines for Animal Welfare in Cancer Research (project license PCC916B22, Animals in Science Regulation Unit, Home Office Science, London, UK)[65]. Female Nu(NCr)-Foxn1nu mice (5–7 weeks; 20–22 g) obtained from an in-house breeding colony were used in the studies. Animals were housed in a temperature-controlled facility with 12 h on–12 h off light cycle and provided water and laboratory rodent food ad libitum. Subcutaneous xenografts were generated by injection of either Kelly (5 × 10^6/0.1 mL PBS/Matrigel 30% v/v; BD Matrigel Matrix, BD Bioscience, San Jose, California, US) or SK-N-BE(2)C (1 × 10^6/0.1 mL PBS/Matrigel) into the lower flank. For the treatment studies, AZD2014 stock solution in DMSO was diluted in PEG400 to a final concentration of 2 mg/mL (10% DMSO maximum). When tumours reached ~ 100 mm^3 (calliper measurements using formula: Volume = (Width(2) × Length)/2), mice were treated daily, for a total of either 1, 3 or 7 days, by oral gavage with AZD2014 (20 or 25 mg/kg/day) or vehicle control. Mice were monitored daily for body weight or other adverse effects.
When the tumours reached approximately 100–200 mm^3, mice were anaesthetised with an isoflurane/O2 mixture (1.5–2.0% v/v) and intravenously injected with either ^18F-mFBG (~ 7.5 MBq) or ^123I-mIBG (~ 20 MBq). Mice were then imaged using an Albira PET/SPECT/CT scanner (Bruker, Coventry, UK). Whole body PET static images were acquired after 1 and 4 h post-injection (p.i.) for 10 min with an energy window of 358 to 664 keV followed by CT acquisition. Acquisition, reconstruction and image analysis were performed as described previously. Following the final scan, the mice were sacrificed and the major organs were excised, weighed and their associated radioactivity was measured using a γ-counter. Biodistribution and image quantification were expressed as a percentage of injected dose per gram of tissue (%ID/g), whereby 1 cm^3 on PET acquisitions were assumed to equal 1 g (n ≥ 3 mice ± SD).

For `N=C(N)NCc1cccc([18F])c1` [^18F-mFBG, ^18F-meta-fluorobenzylguanidine], the “^18F-mFBG biodistribution 4 h p.i., Tumour:blood” value (1 day AZD2014 (20 mg/kg/day)) was 17.72 ± 2.35, the “^18F-mFBG biodistribution 4 h p.i., Tumour:muscle” value (1 day AZD2014 (20 mg/kg/day)) was 5.74 ± 1.77 and the “^18F-mFBG biodistribution 4 h p.i., Blood” value (1 day vehicle) was 0.18 ± 0.02 %ID/g. For the same molecule, the “^18F-mFBG biodistribution 4 h p.i., Bone” value (1 day vehicle) was 4.98 ± 2.18^c %ID/g, the “^18F-mFBG biodistribution 4 h p.i., Brown adipose” value (1 day vehicle) was 5.14 ± 0.38^b %ID/g and the “^18F-mFBG biodistribution 4 h p.i., Heart” value (1 day vehicle) was 4.38 ± 1.68 %ID/g. For the same molecule, the “^18F-mFBG biodistribution 4 h p.i., Kidney” value (1 day vehicle) was 0.79 ± 0.36 %ID/g, the “^18F-mFBG biodistribution 4 h p.i., Liver” value (1 day vehicle) was 1.94 ± 0.30 %ID/g and the “^18F-mFBG biodistribution 4 h p.i., Lungs” value (1 day vehicle) was 1.22 ± 0.37 %ID/g. For the same molecule, the “^18F-mFBG biodistribution 4 h p.i., Muscle” value (1 day vehicle) was 0.60 ± 0.13 %ID/g, the “^18F-mFBG biodistribution 4 h p.i., Pancreas” value (1 day vehicle) was 1.01 ± 0.18 %ID/g and the “^18F-mFBG biodistribution 4 h p.i., Small intestine” value (1 day vehicle) was 4.50 ± 0.24^b %ID/g. For the same molecule, the “^18F-mFBG biodistribution 4 h p.i., Spleen” value (1 day vehicle) was 3.19 ± 0.63 %ID/g, the “^18F-mFBG biodistribution 4 h p.i., Tumour” value (1 day vehicle) was 2.76 ± 1.14 %ID/g and the “^18F-mFBG biodistribution 4 h p.i., Tumour:blood” value (1 day vehicle) was 15.27 ± 5.32. For the same molecule, the “^18F-mFBG biodistribution 4 h p.i., Tumour:muscle” value (1 day vehicle) was 4.44 ± 0.94, the “^18F-mFBG biodistribution 4 h p.i., Blood” value (3 day vehicle) was 0.18 ± 0.08 %ID/g and the “^18F-mFBG biodistribution 4 h p.i., Bone” value (3 day vehicle) was 1.64 ± 0.45 %ID/g. For the same molecule, the “^18F-mFBG biodistribution 4 h p.i., Brown adipose” value (3 day vehicle) was 5.15 ± 0.78^b %ID/g, the “^18F-mFBG biodistribution 4 h p.i., Heart” value (3 day vehicle) was 3.64 ± 0.89 %ID/g and the “^18F-mFBG biodistribution 4 h p.i., Kidney” value (3 day vehicle) was 1.13 ± 0.47 %ID/g. The “^18F-mFBG biodistribution 4 h p.i., Liver” value (3 day vehicle) was 1.96 ± 0.02 %ID/g, the “^18F-mFBG biodistribution 4 h p.i., Lungs” value (3 day vehicle) was 1.15 ± 0.23 %ID/g and the “^18F-mFBG biodistribution 4 h p.i., Muscle” value (3 day vehicle) was 0.53 ± 0.19 %ID/g. The “^18F-mFBG biodistribution 4 h p.i., Pancreas” value (3 day vehicle) was 1.25 ± 0.51 %ID/g, the “^18F-mFBG biodistribution 4 h p.i., Small intestine” value (3 day vehicle) was 5.32 ± 0.11 %ID/g and the “^18F-mFBG biodistribution 4 h p.i., Spleen” value (3 day vehicle) was 2.08 ± 1.29 %ID/g. For the same molecule, the “^18F-mFBG biodistribution 4 h p.i., Tumour” value (3 day vehicle) was 2.39 ± 0.10 %ID/g, the “^18F-mFBG biodistribution 4 h p.i., Tumour:blood” value (3 day vehicle) was 14.47 ± 4.61 and the “^18F-mFBG biodistribution 4 h p.i., Tumour:muscle” value (3 day vehicle) was 4.89 ± 1.48. The “^18F-mFBG biodistribution 4 h p.i., Blood” value (7 day AZD2014 (20 mg/kg/day)) was 0.32 ± 0.14 %ID/g, the “^18F-mFBG biodistribution 4 h p.i., Bone” value (7 day AZD2014 (20 mg/kg/day)) was 0.63 ± 0.54 %ID/g and the “^18F-mFBG biodistribution 4 h p.i., Brown adipose” value (7 day AZD2014 (20 mg/kg/day)) was 8.08 ± 0.72 %ID/g. The “^18F-mFBG biodistribution 4 h p.i., Heart” value (7 day AZD2014 (20 mg/kg/day)) was 4.17 ± 1.63 %ID/g, the “^18F-mFBG biodistribution 4 h p.i., Kidney” value (7 day AZD2014 (20 mg/kg/day)) was 1.02 ± 0.15 %ID/g and the “^18F-mFBG biodistribution 4 h p.i., Liver” value (7 day AZD2014 (20 mg/kg/day)) was 2.64 ± 0.46 %ID/g. The “^18F-mFBG biodistribution 4 h p.i., Lungs” value (7 day AZD2014 (20 mg/kg/day)) was 1.33 ± 0.36 %ID/g, the “^18F-mFBG biodistribution 4 h p.i., Muscle” value (7 day AZD2014 (20 mg/kg/day)) was 0.75 ± 0.02 %ID/g and the “^18F-mFBG biodistribution 4 h p.i., Pancreas” value (7 day AZD2014 (20 mg/kg/day)) was 3.08 ± 1.80 %ID/g. For the same molecule, the “^18F-mFBG biodistribution 4 h p.i., Small intestine” value (7 day AZD2014 (20 mg/kg/day)) was 6.87 ± 1.86 %ID/g, the “^18F-mFBG biodistribution 4 h p.i., Spleen” value (7 day AZD2014 (20 mg/kg/day)) was 1.64 ± 0.46 %ID/g and the “^18F-mFBG biodistribution 4 h p.i., Tumour” value (7 day AZD2014 (20 mg/kg/day)) was 2.61 ± 1.19 %ID/g. For the same molecule, the “^18F-mFBG biodistribution 4 h p.i., Tumour:blood” value (7 day AZD2014 (20 mg/kg/day)) was 8.06 ± 2.57, the “^18F-mFBG biodistribution 4 h p.i., Tumour:muscle” value (7 day AZD2014 (20 mg/kg/day)) was 3.50 ± 1.62 and the “^18F-mFBG biodistribution 4 h p.i., Blood” value (7 day vehicle) was 0.17 ± 0.06 %ID/g. The “^18F-mFBG biodistribution 4 h p.i., Bone” value (7 day vehicle) was 1.13 ± 0.20 %ID/g, the “^18F-mFBG biodistribution 4 h p.i., Brown adipose” value (7 day vehicle) was 6.08 ± 2.45 %ID/g and the “^18F-mFBG biodistribution 4 h p.i., Heart” value (7 day vehicle) was 5.87 ± 2.80 %ID/g. For the same molecule, the “^18F-mFBG biodistribution 4 h p.i., Kidney” value (7 day vehicle) was 1.09 ± 0.16 %ID/g, the “^18F-mFBG biodistribution 4 h p.i., Liver” value (7 day vehicle) was 2.15 ± 0.30 %ID/g and the “^18F-mFBG biodistribution 4 h p.i., Lungs” value (7 day vehicle) was 1.86 ± 0.64 %ID/g. For the same molecule, the “^18F-mFBG biodistribution 4 h p.i., Muscle” value (7 day vehicle) was 0.67 ± 0.07 %ID/g, the “^18F-mFBG biodistribution 4 h p.i., Pancreas” value (7 day vehicle) was 2.81 ± 1.72 %ID/g and the “^18F-mFBG biodistribution 4 h p.i., Small intestine” value (7 day vehicle) was 6.22 ± 0.35 %ID/g. The “^18F-mFBG biodistribution 4 h p.i., Spleen” value (7 day vehicle) was 1.75 ± 0.67 %ID/g, the “^18F-mFBG biodistribution 4 h p.i., Tumour” value (7 day vehicle) was 2.17 ± 1.01 %ID/g and the “^18F-mFBG biodistribution 4 h p.i., Tumour:blood” value (7 day vehicle) was 15.55 ± 13.55. The “^18F-mFBG biodistribution 4 h p.i., Tumour:muscle” value (7 day vehicle) was 3.36 ± 1.90.

From article PMC7708446, “^18F-meta-fluorobenzylguanidine (^18F-mFBG) to monitor changes in norepinephrine transporter expression in response to therapeutic intervention in neuroblastoma models” (Scientific Reports, 2020)
